Measurements: publication PMC3961306, “Comparison of the Cancer Gene Targeting and Biochemical Selectivities of All Targeted Kinase Inhibitors Approved for Clinical Use” (PLoS ONE, 2014)

Key:
Assay in all cases: Kinase profiling in a biochemical assay panel (mobility shift assays and ELISA), %-inhibition at 1 μM; selectivity entropy
[1] = molecular target: panel of more than 300 wild-type and mutant kinases (313 kinase panel) (Homo sapiens, UniProt O00311)
[2] = molecular target: panel of more than 300 wild-type and mutant kinases (313 kinase panel) (Homo sapiens, UniProt P29597)
[3] = molecular target: T1, panel of more than 300 wild-type and mutant kinases (313 kinase panel) (Homo sapiens, UniProt P36888)
T1 sequence (P36888 27-993): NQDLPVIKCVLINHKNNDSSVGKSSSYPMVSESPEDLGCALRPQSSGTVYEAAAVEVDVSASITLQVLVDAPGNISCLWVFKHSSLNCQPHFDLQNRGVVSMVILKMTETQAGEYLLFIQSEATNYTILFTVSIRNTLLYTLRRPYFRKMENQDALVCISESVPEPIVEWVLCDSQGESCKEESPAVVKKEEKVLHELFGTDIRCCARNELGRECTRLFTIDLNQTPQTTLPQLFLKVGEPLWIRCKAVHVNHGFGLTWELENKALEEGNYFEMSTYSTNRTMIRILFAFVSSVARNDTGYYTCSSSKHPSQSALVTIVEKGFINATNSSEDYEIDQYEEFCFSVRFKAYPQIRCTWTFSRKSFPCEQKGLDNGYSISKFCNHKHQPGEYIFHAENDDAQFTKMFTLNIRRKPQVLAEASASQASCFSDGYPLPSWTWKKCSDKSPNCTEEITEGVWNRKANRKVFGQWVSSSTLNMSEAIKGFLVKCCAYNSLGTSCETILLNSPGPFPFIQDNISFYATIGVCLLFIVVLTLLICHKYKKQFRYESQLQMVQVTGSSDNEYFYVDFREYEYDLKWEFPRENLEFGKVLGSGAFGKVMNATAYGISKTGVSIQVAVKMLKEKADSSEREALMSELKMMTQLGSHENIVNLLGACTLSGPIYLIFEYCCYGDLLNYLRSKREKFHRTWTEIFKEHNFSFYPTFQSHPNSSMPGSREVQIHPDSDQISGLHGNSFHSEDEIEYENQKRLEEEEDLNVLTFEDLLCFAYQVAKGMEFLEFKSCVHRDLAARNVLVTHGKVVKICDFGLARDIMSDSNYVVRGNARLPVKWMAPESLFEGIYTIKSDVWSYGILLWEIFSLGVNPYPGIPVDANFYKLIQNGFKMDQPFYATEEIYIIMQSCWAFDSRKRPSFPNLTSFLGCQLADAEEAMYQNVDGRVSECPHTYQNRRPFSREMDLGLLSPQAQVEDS

[4] = molecular target: panel of more than 300 wild-type and mutant kinases (313 kinase panel) (Homo sapiens, UniProt Q04759)
[5] = molecular target: T2, panel of more than 300 wild-type and mutant kinases (313 kinase panel) (Homo sapiens, UniProt Q13237)
T2 sequence (Q13237 1-762): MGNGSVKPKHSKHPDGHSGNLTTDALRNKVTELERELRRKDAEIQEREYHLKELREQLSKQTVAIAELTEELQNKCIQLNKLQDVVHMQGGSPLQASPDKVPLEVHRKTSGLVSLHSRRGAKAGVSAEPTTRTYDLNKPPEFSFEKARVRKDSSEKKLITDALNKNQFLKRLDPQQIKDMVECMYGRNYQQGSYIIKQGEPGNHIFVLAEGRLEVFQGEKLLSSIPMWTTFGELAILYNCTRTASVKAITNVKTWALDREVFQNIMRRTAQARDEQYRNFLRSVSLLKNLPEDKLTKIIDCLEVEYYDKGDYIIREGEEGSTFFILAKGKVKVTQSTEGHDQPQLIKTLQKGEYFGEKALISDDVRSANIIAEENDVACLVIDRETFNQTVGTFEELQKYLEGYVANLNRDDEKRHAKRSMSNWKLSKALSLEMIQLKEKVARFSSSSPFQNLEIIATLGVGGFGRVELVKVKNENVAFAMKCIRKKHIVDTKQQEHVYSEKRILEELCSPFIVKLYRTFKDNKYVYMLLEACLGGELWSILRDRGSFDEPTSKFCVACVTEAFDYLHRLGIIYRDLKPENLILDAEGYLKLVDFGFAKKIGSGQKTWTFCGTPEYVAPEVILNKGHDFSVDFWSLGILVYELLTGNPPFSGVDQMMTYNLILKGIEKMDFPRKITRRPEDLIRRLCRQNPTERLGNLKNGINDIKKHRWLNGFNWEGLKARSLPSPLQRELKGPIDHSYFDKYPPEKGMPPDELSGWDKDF

[6] = molecular target: panel of more than 300 wild-type and mutant kinases (313 kinase panel) (Homo sapiens, UniProt Q8TDX7)

panel of more than 300 wild-type and mutant kinases (313 kinase panel) (Homo sapiens, UniProt Q04759), sequence (Q04759 whole entry, change not shown): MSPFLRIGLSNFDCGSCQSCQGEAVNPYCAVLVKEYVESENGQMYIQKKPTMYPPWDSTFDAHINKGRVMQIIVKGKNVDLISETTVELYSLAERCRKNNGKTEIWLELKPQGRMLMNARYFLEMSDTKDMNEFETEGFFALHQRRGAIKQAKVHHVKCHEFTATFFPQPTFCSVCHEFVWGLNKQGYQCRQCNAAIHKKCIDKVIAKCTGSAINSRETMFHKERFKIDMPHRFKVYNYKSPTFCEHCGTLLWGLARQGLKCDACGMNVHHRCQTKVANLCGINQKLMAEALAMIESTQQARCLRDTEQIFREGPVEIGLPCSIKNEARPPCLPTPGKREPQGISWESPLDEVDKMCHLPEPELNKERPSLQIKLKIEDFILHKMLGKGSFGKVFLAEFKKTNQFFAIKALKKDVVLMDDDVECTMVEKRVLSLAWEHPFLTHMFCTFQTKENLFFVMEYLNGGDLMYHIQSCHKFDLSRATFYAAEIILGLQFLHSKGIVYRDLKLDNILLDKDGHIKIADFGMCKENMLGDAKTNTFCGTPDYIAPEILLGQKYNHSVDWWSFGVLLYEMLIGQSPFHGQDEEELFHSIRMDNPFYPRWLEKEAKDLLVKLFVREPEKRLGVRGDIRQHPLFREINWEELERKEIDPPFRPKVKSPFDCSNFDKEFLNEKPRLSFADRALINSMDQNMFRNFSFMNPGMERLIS
panel of more than 300 wild-type and mutant kinases (313 kinase panel) (Homo sapiens, UniProt P29597), sequence (P29597 whole entry, change not shown): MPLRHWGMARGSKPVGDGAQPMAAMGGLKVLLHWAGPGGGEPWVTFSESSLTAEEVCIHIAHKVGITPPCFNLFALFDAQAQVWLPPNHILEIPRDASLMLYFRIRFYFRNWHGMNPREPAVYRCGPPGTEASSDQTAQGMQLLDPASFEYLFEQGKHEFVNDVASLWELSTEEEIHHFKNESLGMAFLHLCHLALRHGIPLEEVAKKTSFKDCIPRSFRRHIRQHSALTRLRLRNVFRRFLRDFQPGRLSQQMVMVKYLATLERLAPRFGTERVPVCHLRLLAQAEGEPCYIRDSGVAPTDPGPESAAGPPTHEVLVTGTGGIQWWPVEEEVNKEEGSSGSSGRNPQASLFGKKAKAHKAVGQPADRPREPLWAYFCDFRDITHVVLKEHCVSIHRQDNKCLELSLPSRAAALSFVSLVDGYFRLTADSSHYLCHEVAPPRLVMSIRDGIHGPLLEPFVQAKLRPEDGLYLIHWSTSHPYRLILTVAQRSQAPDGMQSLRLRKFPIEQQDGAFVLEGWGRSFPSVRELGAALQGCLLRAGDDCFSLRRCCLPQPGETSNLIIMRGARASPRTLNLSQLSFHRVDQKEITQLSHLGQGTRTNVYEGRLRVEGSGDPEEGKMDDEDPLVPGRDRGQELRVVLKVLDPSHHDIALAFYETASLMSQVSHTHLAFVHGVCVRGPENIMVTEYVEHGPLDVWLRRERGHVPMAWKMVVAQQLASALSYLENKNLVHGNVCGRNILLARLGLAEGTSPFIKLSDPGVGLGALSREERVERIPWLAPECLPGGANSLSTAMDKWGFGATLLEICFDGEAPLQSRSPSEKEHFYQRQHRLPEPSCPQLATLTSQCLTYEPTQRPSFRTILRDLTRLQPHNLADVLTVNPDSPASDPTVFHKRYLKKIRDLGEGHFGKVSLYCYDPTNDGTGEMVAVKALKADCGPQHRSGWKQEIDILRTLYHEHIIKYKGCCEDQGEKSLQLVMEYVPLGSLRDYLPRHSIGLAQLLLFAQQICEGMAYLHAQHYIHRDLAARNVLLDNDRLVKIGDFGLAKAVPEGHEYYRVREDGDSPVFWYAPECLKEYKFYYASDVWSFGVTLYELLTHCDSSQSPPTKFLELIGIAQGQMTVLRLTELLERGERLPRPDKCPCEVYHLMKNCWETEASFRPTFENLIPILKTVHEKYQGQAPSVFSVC

Compound | %-inhibition, CDC7/ASK ([1]; kinase CDC7/ASK, 1 μM compound) | %-inhibition of TYK2 ([2]; kinase TYK2, compound at 1 μM) | %-inhibition of FLT3 ([3]; kinase FLT3, compound at 1 μM) | %-inhibition of PKCθ ([4]; kinase PKCθ, 1 μM) | %-inhibition, CGK2 ([5]; kinase CGK2, 1 μM compound) | %-inhibition of NEK7 ([6]; kinase NEK7, 1 μM) | %-inhibition, CDC7/ASK ([1]; 1 µM) | %-inhibition of TYK2 ([2]; 1 µM) | %-inhibition of PKCθ ([4]; 1 µM) | %-inhibition, CGK2 ([5]; 1 µM) | %-inhibition of NEK7 ([6]; 1 µM) | %-inhibition of FLT3 ([3]; 1 µM)
COc1cc(Nc2c(C#N)cnc3cc(OCCCN4CCN(C)CC4)c(OC)cc23)c(Cl)cc1Cl [bosutinib] | -5.36% | -3.37% | 77% | 84% | -0.53% | – | – | – | – | – | – | –
COc1cc2nccc(Oc3ccc(NC(=O)C4(C(=O)Nc5ccc(F)cc5)CC4)cc3)c2cc1OC [cabozantinib] | -3.4% | -3.68% | 91% | -4.28% | -2.55% | -6% | – | – | – | – | – | –
C[C@@H](Oc1cc(-c2cnn(C3CCNCC3)c2)cnc1N)c1c(Cl)ccc(F)c1Cl [crizotinib] | – | 21% | – | -3% | -0.915% | -5.3% | – | – | – | – | – | –
CC(C)(C)c1nc(-c2cccc(NS(=O)(=O)c3c(F)cccc3F)c2F)c(-c2ccnc(N)n2)s1 [dabrafenib] | -6% | 10% | 41% | – | -1.38% | 2.28% | – | – | – | – | – | –
Cc1nc(Nc2ncc(C(=O)Nc3c(C)cccc3Cl)s2)cc(N2CCN(CCO)CC2)n1 [dasatinib] | 3% | – | – | – | -6% | – | – | – | – | – | – | –
C#Cc1cccc(Nc2ncnc3cc(OCCOC)c(OCCOC)cc23)c1 [erlotinib] | – | – | – | – | – | – | 0.905% | -2.7% | 4.46% | -1.7% | 0.893% | –
CO[C@H]1C[C@@H]2CC[C@@H](C)[C@@](O)(O2)C(=O)C(=O)N2CCCC[C@H]2C(=O)O[C@H]([C@H](C)C[C@@H]2CC[C@@H](OCCO)[C@H](OC)C2)CC(=O)[C@H](C)/C=C(\C)[C@@H](O)[C@@H](OC)C(=O)[C@H](C)C[C@H](C)/C=C/C=C/C=C/1C [everolimus] | -6% | -7% | 2.25% | -8% | -4.58% | -11% | – | – | – | – | – | –
O=S(=O)(c1cccc2cnccc12)N1CCCNCC1 [fasudil] | -7% | 6% | 22% | 13% | 46% | -1.52% | – | – | – | – | – | –
CS(=O)(=O)CCNCc1ccc(-c2ccc3ncnc(Nc4ccc(OCc5cccc(F)c5)c(Cl)c4)c3c2)o1 [lapatinib] | 3% | -10% | -3.74% | – | -9% | – | – | – | 0% | – | -0.744% | –
Cc1cn(-c2cc(NC(=O)c3ccc(C)c(Nc4nccc(-c5cccnc5)n4)c3)cc(C(F)(F)F)c2)cn1 [nilotinib] | -7% | – | – | -3.49% | 12% | -3.77% | – | -1.71% | – | – | – | 60%
Cc1ccc(Nc2nccc(N(C)c3ccc4c(C)n(C)nc4c3)n2)cc1S(N)(=O)=O [pazopanib] | -3.46% | 5.31% | – | -3.47% | -1% | -4.75% | – | – | – | – | – | –
Cc1ccc(C(=O)Nc2ccc(CN3CCN(C)CC3)c(C(F)(F)F)c2)cc1C#Cc1cnc2cccnn12 [ponatinib] | -7.45% | 66% | 99% | 0.0638% | 12% | -10% | – | – | – | – | – | –
CNC(=O)c1cc(Oc2ccc(NC(=O)Nc3ccc(Cl)c(C(F)(F)F)c3)c(F)c2)ccn1 [regorafenib] | -5.36% | -3.68% | 68% | -7.47% | -1.78% | -13% | – | – | – | – | – | –
N#CC[C@H](C1CCCC1)n1cc(-c2ncnc3[nH]ccc23)cn1 [ruxolitinib] | 5.36% | – | – | -1.47% | – | -1.81% | – | – | – | – | – | 18%
CO[C@H]1C[C@@H]2CC[C@@H](C)[C@@](O)(O2)C(=O)C(=O)N2CCCC[C@H]2C(=O)O[C@H]([C@H](C)C[C@@H]2CC[C@@H](OC(=O)C(C)(CO)CO)[C@H](OC)C2)CC(=O)[C@H](C)/C=C(\C)[C@@H](O)[C@@H](OC)C(=O)[C@H](C)C[C@H](C)/C=C/C=C/C=C/1C [temsirolimus] | -6% | -6.58% | 5% | -2.62% | -2.84% | -8% | – | – | – | – | – | –
CC(=O)Nc1cccc(-n2c(=O)n(C3CC3)c(=O)c3c(Nc4ccc(I)cc4F)n(C)c(=O)c(C)c32)c1 [trametinib] | -8% | 2.16% | 20% | 0.388% | -2.61% | 1.63% | – | – | – | – | – | –
COc1cc2c(Nc3ccc(Br)cc3F)ncnc2cc1OCC1CCN(C)CC1 [vandetanib] | -6.41% | -7% | 90% | -0.702% | -2.65% | -6% | – | – | – | – | – | –
CCCS(=O)(=O)Nc1ccc(F)c(C(=O)c2c[nH]c3ncc(-c4ccc(Cl)cc4)cc23)c1F [vemurafenib] | -7% | 6% | 10% | -3% | -2.26% | -3.56% | – | – | – | – | – | –
